Assay results: PubChem BioAssay (NCI)
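Exposure lasted 48 hours, with cells grown in 96-well plates and compounds tested at five concentrations. GI50: concentration for 50% inhibition of growth. At the TGI there is no net growth.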

Tests used:
Assay in all cases: NCI-60 cell line screen, 48 h
HOP-62 NSCLC = system: HOP-62 NSCLC
KM12 colon = system: KM12 colon
OVCAR-4 ovarian = system: OVCAR-4 ovarian
SN12C renal = system: SN12C renal
COLO 205 colon = system: COLO 205 colon
M14 melanoma = system: M14 melanoma
NCI/ADR-RES ovarian = system: NCI/ADR-RES ovarian
DU-145 prostate = system: DU-145 prostate
SK-MEL-2 melanoma = system: SK-MEL-2 melanoma
MDA-MB-435 = system: MDA-MB-435
UO-31 renal = system: UO-31 renal
OVCAR-3 ovarian = system: OVCAR-3 ovarian
SK-MEL-5 melanoma = system: SK-MEL-5 melanoma
NCI-H460 lung = system: NCI-H460 lung
RPMI-8226 leukemia = system: RPMI-8226 leukemia
SW-620 colon = system: SW-620 colon
HCC-2998 colon = system: HCC-2998 colon
CAKI-1 renal = system: CAKI-1 renal
OVCAR-5 ovarian = system: OVCAR-5 ovarian
SF-268 CNS = system: SF-268 CNS
NCI-H23 lung = system: NCI-H23 lung
UACC-62 melanoma = system: UACC-62 melanoma
MCF7 breast = system: MCF7 breast
BT-549 breast = system: BT-549 breast
CCRF-CEM leukemia = system: CCRF-CEM leukemia
HL-60(TB) leukemia = system: HL-60(TB) leukemia
RXF 393 renal = system: RXF 393 renal
SF-539 CNS = system: SF-539 CNS
PC-3 prostate = system: PC-3 prostate
SF-295 CNS = system: SF-295 CNS
MOLT-4 leukemia = system: MOLT-4 leukemia
NCI-H226 lung = system: NCI-H226 lung
TK-10 renal = system: TK-10 renal
HCT-116 colon = system: HCT-116 colon
T-47D breast = system: T-47D breast
SNB-19 CNS = system: SNB-19 CNS
SK-MEL-28 melanoma = system: SK-MEL-28 melanoma
A498 renal = system: A498 renal
HT29 colon = system: HT29 colon
786-0 renal = system: 786-0 renal
OVCAR-8 ovarian = system: OVCAR-8 ovarian
A549 NSCLC = system: A549 NSCLC
MDA-MB-231 breast = system: MDA-MB-231 breast
ACHN renal = system: ACHN renal
IGROV1 ovarian = system: IGROV1 ovarian
MALME-3M melanoma = system: MALME-3M melanoma
SR leukemia = system: SR leukemia
UACC-257 melanoma = system: UACC-257 melanoma
HOP-92 NSCLC = system: HOP-92 NSCLC
SNB-75 CNS = system: SNB-75 CNS
HS 578T breast = system: HS 578T breast
K-562 leukemia = system: K-562 leukemia
SK-OV-3 ovarian = system: SK-OV-3 ovarian
U251 CNS = system: U251 CNS

C[C@]12CC[C@@H]3c4ccc(O)cc4CC[C@H]3[C@@H]1CC[C@@H]2NS(=O)(=O)c1ccc(Cl)cc1
GI50 (HOP-62 NSCLC): 10.2 µM | TGI (HOP-62 NSCLC): 24.4 µM | GI50 (KM12 colon): 2.86 µM | TGI (KM12 colon): 9.51 µM | GI50 (OVCAR-4 ovarian): 1.99 µM | TGI (OVCAR-4 ovarian): 8.65 µM | GI50 (SN12C renal): 3.02 µM | TGI (SN12C renal): 12.3 µM | GI50 (COLO 205 colon): 2.17 µM | TGI (COLO 205 colon): 4.09 µM | GI50 (M14 melanoma): 9.13 µM | TGI (M14 melanoma): 27.1 µM | GI50 (NCI/ADR-RES ovarian): 4 µM | TGI (NCI/ADR-RES ovarian): 16.8 µM | GI50 (DU-145 prostate): 7.53 µM | TGI (DU-145 prostate): 21.6 µM | GI50 (SK-MEL-2 melanoma): 5.31 µM | TGI (SK-MEL-2 melanoma): 17.7 µM | GI50 (MDA-MB-435): 1.84 µM | TGI (MDA-MB-435): 3.93 µM | GI50 (UO-31 renal): 2.59 µM | TGI (UO-31 renal): 11.9 µM | GI50 (OVCAR-3 ovarian): 3.75 µM | TGI (OVCAR-3 ovarian): 12.8 µM | GI50 (SK-MEL-5 melanoma): 2.4 µM | TGI (SK-MEL-5 melanoma): 6.71 µM | GI50 (NCI-H460 lung): 2.6 µM | TGI (NCI-H460 lung): 6.66 µM | GI50 (RPMI-8226 leukemia): 3.92 µM | TGI (RPMI-8226 leukemia): 23.5 µM | GI50 (SW-620 colon): 3.95 µM | TGI (SW-620 colon): 15.9 µM | GI50 (HCC-2998 colon): 7.49 µM | TGI (HCC-2998 colon): 23.8 µM | GI50 (CAKI-1 renal): 3.3 µM | TGI (CAKI-1 renal): 10.4 µM | GI50 (OVCAR-5 ovarian): 6.02 µM | TGI (OVCAR-5 ovarian): 20.5 µM | GI50 (SF-268 CNS): 5.69 µM | TGI (SF-268 CNS): 19.9 µM | GI50 (NCI-H23 lung): 5.67 µM | TGI (NCI-H23 lung): 23.1 µM | GI50 (UACC-62 melanoma): 4.46 µM | TGI (UACC-62 melanoma): 17.5 µM | GI50 (MCF7 breast): 1.91 µM | TGI (MCF7 breast): 4.86 µM | GI50 (BT-549 breast): 5.65 µM | TGI (BT-549 breast): 22.3 µM | GI50 (CCRF-CEM leukemia): 3.5 µM | TGI (CCRF-CEM leukemia): 37.6 µM | GI50 (HL-60(TB) leukemia): 5.14 µM | TGI (HL-60(TB) leukemia): 26.6 µM | GI50 (RXF 393 renal): 3.02 µM | TGI (RXF 393 renal): 8.89 µM | GI50 (SF-539 CNS): 5.36 µM | TGI (SF-539 CNS): 19.1 µM | GI50 (PC-3 prostate): 2.86 µM | TGI (PC-3 prostate): 13.5 µM | GI50 (SF-295 CNS): 1.39 µM | TGI (SF-295 CNS): 2.72 µM | GI50 (MOLT-4 leukemia): 3.46 µM | TGI (MOLT-4 leukemia): 24.4 µM | GI50 (NCI-H226 lung): 6.43 µM | TGI (NCI-H226 lung): 21.4 µM | GI50 (TK-10 renal): 5.46 µM | TGI (TK-10 renal): 17.6 µM | GI50 (HCT-116 colon): 4.03 µM | TGI (HCT-116 colon): 21.7 µM | GI50 (T-47D breast): 3.66 µM | TGI (T-47D breast): 15.3 µM | GI50 (SNB-19 CNS): 11 µM | TGI (SNB-19 CNS): 24 µM | GI50 (SK-MEL-28 melanoma): 7.45 µM | TGI (SK-MEL-28 melanoma): 22.3 µM | GI50 (A498 renal): 2.52 µM | TGI (A498 renal): 9.36 µM | GI50 (HT29 colon): 2.92 µM | TGI (HT29 colon): 8.19 µM | GI50 (786-0 renal): 5.19 µM | TGI (786-0 renal): 19.7 µM | GI50 (OVCAR-8 ovarian): 4.86 µM | TGI (OVCAR-8 ovarian): 20.6 µM | GI50 (A549 NSCLC): 3.98 µM | TGI (A549 NSCLC): 15.3 µM | GI50 (MDA-MB-231 breast): 3.6 µM | TGI (MDA-MB-231 breast): 14.2 µM | GI50 (ACHN renal): 3.5 µM | TGI (ACHN renal): 12.9 µM | GI50 (IGROV1 ovarian): 5.74 µM | TGI (IGROV1 ovarian): 18.4 µM | GI50 (MALME-3M melanoma): 3.25 µM | TGI (MALME-3M melanoma): 10.7 µM | GI50 (SR leukemia): 4.47 µM | TGI (SR leukemia): 50.8 µM | GI50 (UACC-257 melanoma): 8.5 µM | TGI (UACC-257 melanoma): 23.5 µM | GI50 (HOP-92 NSCLC): 2.68 µM | TGI (HOP-92 NSCLC): 10.7 µM | GI50 (SNB-75 CNS): 2.07 µM | TGI (SNB-75 CNS): 9.17 µM | GI50 (HS 578T breast): 2.58 µM | TGI (HS 578T breast): 14.5 µM | GI50 (K-562 leukemia): 3.93 µM | TGI (K-562 leukemia): 31.7 µM | GI50 (SK-OV-3 ovarian): 8.79 µM | TGI (SK-OV-3 ovarian): 22.5 µM | GI50 (U251 CNS): 5.49 µM | TGI (U251 CNS): 18.5 µM
